Measurements taken from patent publication US11896704B2, “Compounds useful for the treatment and/or care of the skin, hair, nails and/or mucous membranes” (LUBRIZOL ADVANCED MATERIALS, INC., priority 2017, dated 2024).

What was measured:
[1] = tested on: Phenion Full-Thickness Skin models; test: Lipidomics profile (UHPLC-MS) in synchronized human full-thickness skin models; assay type: cell-based; conditions: 0.5 mg/ml, 48 hours of treatment, 7:30 h, one assay
Excerpt: Analysis of Lipidomics Profile in Synchronized Human Full-Thickness Skin Models. Lipidomic profile from human skin models can be assessed by measuring using an ultrahigh performance liquid chromatography-mass spectrometry (UHPLC-MS). The main objective of this experiment is to evaluate the lipidomic profile of synchronized human skin models after the treatment with the peptide […] (PEP-1, H-[SEQ ID. NO. 2]-NH2) in order to determine ceramide skin content and the PC-DHA/PC ratio. After arrival, the Phenion® Full-Thickness Skin models ([…]) are placed in Petri dishes (5 skin models per condition) according to the supplier's instructions in ALI medium ([…]). After 72 hours incubation at 37° C., 5% CO2, a synchronization protocol is initialized. For this purpose, skin models are subjected to two alternative cycles of 12 hours each at 37° C. in 5% CO2 humidified air (day mode) and 33° C. in 5% CO2 humidified air (night mode). Skin models are treated with the peptide […] (PEP-1, H-[SEQ ID. NO. 2]-NH2) at 0.5 mg/ml both in the above surface (50 μl of treatment) of the models and within the Petri-dish containing medium. Skin models treated with medium are used as a basal control condition. This treatment is […] hours in the same conditions. […] These values are calculated for one assay. […] These values are calculated for one assay.

[2] = tested on: CRY2 (cryptochrome circadian clock 2); test: Clock gene expression in synchronized HEKa, real time PCR: CRY2; assay type: cell-based, Human; conditions: 0.5 mg/ml
Procedure: (§1) In Vitro Study of Clock Genes Expression in Synchronized Human Epidermal Keratinocytes from Adult (HEKa) Using Real Time PCR Arrays. HEKa cells (Life Technologies) are seeded at 3.0×10^5 cells/well in 12-well plates and incubated in culture medium, Keratinocyte growth medium supplemented with Mix C39016-CaCl2 solution (Promocell). For synchronization, cells were subjected to two alternative cycles of 12 hours each at 37° C. in 5% CO2 humidified air (day mode) and 33° C. in 5% CO2 humidified air (night mode). 12 hours after starting synchronization, cells are incubated with the synthetic peptide […] (PEP-1, H-[SEQ ID. NO. 2]-NH2) at 0.5 mg/ml in culture medium. Cells treated with medium alone are used as basal condition. At the end of synchronization, cell lysates are collected at two different times: 7:30 hour (early morning point) and 11:30 hour (midday point). […] After RNA elution, quantification and analysis of purity of RNA samples are performed with a nanodrop (Thermo). […] SYBR Green binds to double-stranded DNA molecules and emits fluorescence which is quantified, and the fluorescence intensity is proportional to the amount of the product in the PCR reaction. […] Fold change relative to the expression of the sample genes and reference genes is calculated using normalized expression (ΔΔ(Ct)) method using CFX Manager Software (BioRad).

[3] = tested on: PER3 (period circadian clock 3); test: Clock gene expression in synchronized HEKa, real time PCR: PER3; assay type: cell-based, Human; conditions: 0.5 mg/ml
Procedure: as §1

[4] = tested on: Human Dermal Fibroblasts (HDFa); test: Mitochondrial membrane potential in HDFa, JC-1 fluorescence assay; assay type: cell-based; conditions: 0.5 mg/ml, 16 hours
Procedure: In Vitro Study of Increasing the Mitochondrial Membrane Potential in Human Dermal Fibroblasts (HDFa) by an Immunofluorescence Assay.
Human Dermal Fibroblasts from adult (HDFa, Life Technologies) are seeded at a density of 6,000 cells/well (3 wells per condition) in 96-well plates. Cells are seeded in culture medium M106 with Low Serum Growth Supplement (Life Technologies) during 24 hours at 37° C. in 5% CO2 humidified air. […]. Non-treated cells incubated with medium alone are used as basal conditions.
After 16 hours of treatment, cells are used to quantify mitochondria membrane potential by using JC-1 mitochondrial membrane potential assay kit (Abcam) according to the manufacturer's protocol. Briefly, cells are incubated with a JC-1 working solution prepared with Supplemented Dilution Buffer in the presence of the treatment with the peptide at 0.5 mg/ml at 37° C. 5% CO2 for 30 minutes. […]
Cells are imaged and mitochondrial membrane potential is measured using Operetta® High Content Imaging System (PerkinElmer, Inc). […] Cell number is quantified by using Hoechst 33342 (ThermoFisher Scientific) staining, a cell-permeant nuclear counterstain that emits blue fluorescence at 460 nm when bound to dsDNA and is excited at 350 nm. For each image, intensity fluorescence from energized and depolarized cells is quantified and normalized against the number of nuclei. […]

H-Phe-Trp-Met-Lys-Arg-Lys-Arg-Val-Pro-NH2 (H-FWMKRKRVP-NH2) [PEP-1]
Ceramides amount (%) ([1]; relative to basal condition 7:30 h): 147.6%
Percentage PC-DHA/PC ratio (%) ([1]; relative to basal conditions 7:30 h): 120.2%
Fold induction respect to Basal condition at 7:30 h (%) [2]: 132.5%
Fold induction respect to Basal condition at 7:30 h (%) [3]: 182.5%
Percentage of MMP relative to basal conditions (%) [4]: 130.98%
